Results as given in patent US4130650A, “Antiarrhythmic method of use” (priority 1976, dated 1978).
≈ marks a conversion by molar mass, not a printed value. Counter-ions that a name gives are not always drawn.

Assays:
[1] = tested on: isolated auricles of guinea pigs; assay: Reduction of the maximum driving frequency (MDF) of isolated auricles of guinea pigs; format: cell-based, guinea pig; conditions: Cavia porcellus; isolated left auricles; tyrode solution, 37° C., pH 7.4; cumulative addition; MDF 5 and 10 minutes after adding; read-out: EC50: concentration causing a 50% decrease of the maximum driving frequency (MDF)
Protocol: 1. reduction of the maximum driving frequency of isolated auricles of guinea pigs The tests were carried out using an adaption of the method of DAWES (Brit. J. Pharmacol.1, 90, 1946). Guinea pigs of both sexes, body weight between 300 and 400 gm were killed by a blow on the neck. The left auricles were quickly removed and put into an organ bath of 100 ml. The organ bath was filled with tyrode solution, which was infused with a mixture of 98% of oxygen and 2% of carbon dioxide. […] The auricles were stimulated with square wave impulses of 1 millisecond duration at a voltage 200% higher than the threshold voltage and a frequency of 1 Hz (Hugo Sachs, Stimulator II). A weight of 0.4 gm was applied to the auricles and the contractions were continuously measured isometrically by means of a force displacement transducer (Grass Ft 03) and recorded on a Grass polygraph (model 5). After sufficient equilibration time (15 min.) the stimulation rate was increased every 10 seconds by 1 Hz until the maximum driving frequency (MDF) was reached. The MDF is defined as the stimulation frequency, where every stimulation is still answered by a contraction. The MDF was determined before and 5 and 10 minutes after adding the test compound. The test compound was added cumulatively to the organ bath. The concentration causing a 50% decrease of the MDF (EC50) was calculated from a dose-response curve.

[2] = tested on: adrenalin-induced ventricular arrhythmia in dogs; assay: Prevention of ventricular arrhythmia provoked by adrenalin in dogs under halothane anesthesia; format: in vivo, dog; conditions: Canis lupus familiaris, iv, 5 min, i.v., 4 dogs, adrenalin 5 minutes after compound, read-out: mean dose that abolished the adrenalin arrhythmias
Protocol: (§1) 2. prevention of ventricular arrhythmia provoked by adrenalin in dogs under halothane anesthesia
(§2) According to the method described by ALLEN, et al in Brit. J. Pharmacol. 45, 561 (1972), dogs were anesthetized by subcutaneous injection of 0.5 mgm/kg morphine sulfate and by intravenous injection of 20 mg/kg pentobarbitone. The animals were given artificial respiration with room air from a Starling pump via a cuffed endotracheal tube. The electrocardiogram (lead II) was recorded on a Devices recorder (Type M 8 or M 4). The test compound was injected through a polyethylene catheter inserted into a foreleg vein.
(§3) Observations were made on 4 dogs. The artificial respiration was continued adding 1% halothane to the room air. 15 minutes later adrenalin was injected at doses of 0.2 and increased to 0.4, 0.8, 1.2, 1.6, 2.0, 2.4 and 2.8 […], at intervals of 7 to 10 minutes between each dose, until ventricular tachycardia had been produced. After the arrhythmia-producing dose of adrenalin had been established, compound A was injected intravenously. 5 minutes later the adrenalin injection was repeated, using the same dose. The dose of the test compound was increased to obtain the minimum dose which prevented the adrenalin-induced arrhythmia.

[3] = tested on: ouabain-induced ventricular arrhythmia in dogs; assay: Suppression of ouabain-induced ventricular arrhythmia in dogs; format: in vivo, dog; conditions: 12 dogs
Protocol: (§4) 3. Suppression of ouabain-induced ventricular arrhythmia in dogs
(§5) According to the method described by ALLEN, et al. (supra), dogs were anesthetized by subcutaneous injection of morphine sulfate (0.5 mgm/kg), followed by intravenous injection of pentobarbitone (20 mgm/kg). The animals were given artificial respiration with room air from a Starling pump via a cuffed endotracheal tube. The electrocardiogram (lead II) was recorded on a Devices recorder (Type M8 or M 4). Test compound administration was through a polyethylene catheter inserted in a foreleg vein.
(§6) Observations were made on 12 dogs. Ventricular tachycardia was produced by intravenous injection of ouabain, first 40 mgm/kg, followed after 30 minutes by 20 mgm/kg and by 10 mgm/kg every 15 minutes until ventricular tachycardia was established. 10 minutes after the last ouabain injection, the test compound was continuously infused intravenously from a motor-driven syringe at a rate of 0.2 mgm/kg per minute, until sinus rhythm returned. The mean dose of ouabain to produce ventricular tachycardia was 60 ± 2.8 mg/kg. The mean dose of compound A required to convert the ventricular tachycardia to sinus rhythm was 0.76 ± 0.18 mg/kg i.v.

[4] = Acute i.v. toxicity in mice; conditions: mouse, in vivo, iv, tail vein, LITCHFIELD and WILCOXON, read-out: median lethal dose (LD50)
Protocol: 4. Acute i.v. toxicity in mice
Mice of both sexes having a body weight of 20 to 25 gm were used. The test compound was dissolved in distilled water and injected into the mice with a volume of 0.1 ml/10 gm body weight by way of a tail vein. Each dose was injected into 10 mice. The number of dead animals was determined and the median lethal dose (LD50) was calculated using the method of LITCHFIELD and WILCOXON [J. Pharmac. Exp. Ther. 96, 99 (1949)].

in vivo = format: in vivo, dog; conditions: dog, in vivo, iv
Protocol: as §1, §2, §3, §4, §5, §6
(§7) The lowest therapeutic dose was 0.1 mgm/kg i.v., which is about 100 to 200 times smaller than the mean toxic dose.

anesthetized dogs = assay: animal or person; format: in vivo, dog
Protocol: as §1, §2, §3, §4, §5, §6, §7

Structure (SMILES) | EC50 [1] [µg/mL] | also measured
CN(C)CCOc1ccccc1C=Cc1cnccn1 [H, 2-[o-(β-Dimethylamino-ethoxy)-styryl] -pyrazine] | 25 (≈ 92.8 µM) | –
C(=Cc1ccccc1OCCN1CCOCC1)c1ccccn1 [C, 2-[0-(β-Morpholino-ethoxy)-styryl]-pyridine dihydrochloride] | 33 | –
CN(C)CCOc1ccccc1C=Cc1nc2ccccc2n1C.Cl.Cl [G, 2-[o-(β-Dimethylamino-ethoxy)-styryl]-1-methyl-benzimidazole dihydrochloride] | 9 | –
CN(C)CCOc1ccccc1C=Cc1ccccc1.Cl [I, 2-(2-Dimethylamino-ethoxy)-stilbene hydrochloride] | 10 | –
Cc1cccc(C=Cc2ccccc2OCCN(C)C)n1.Cl [Compound E, 2-[o-(β-Dimethylamino-ethoxy)-styryl]-6-methyl-pyridine hydrochloride] | 6.3 | –
CC(=Cc1ccccc1OCCN(C)C)c1ccccn1 [D, 1-[o-(β-Dimethylamino-ethoxy)-phenyl]-2-(pyridyl-2)-propene-1 monohydrochloride] | 3.1 | –
CN(C)CCOc1ccccc1C=Cc1ccc2ccccc2n1.Cl [F, 2-[o-(β-Dimethylamino-ethoxy)-styryl]-quinoline hydrochloride] | 10 | –
CN(C)CCOc1ccccc1C=Cc1ccccn1.Cl [A, 2-[o-(β-Dimethylamino-ethoxy)-styryl]-pyridine monohydrochloride] | 3.8 | minimal effective dose [2]: 0.18 ± 0.04 mg/kg; minimal effective dose ([3]; Canis lupus familiaris, iv, i.v. infusion 0.2 mgm/kg per minute, ouabain-induced tachycardia, read-out: mean dose required to convert the ventricular tachycardia to sinus rhythm): 0.76 ± 0.18 mg/kg; LD50 [4]: 25 mg/kg; selectivity ratio (in vivo): 100 to 200; minimal effective dose (anesthetized dogs; Canis lupus familiaris, iv, read-out: lowest therapeutic dose): 0.1 mg/kg; antiarrhythmic effectiveness (in words) (anesthetized dogs; anesthetized dogs): very effective antiarrhythmic compound; therapeutic ratio (in words) (anesthetized dogs; dog, in vivo, iv): excellent therapeutic ratio
C[C@@H]1O[C@@H](O[C@H]2C[C@@H](O)[C@]3(CO)[C@H]4[C@H](O)C[C@]5(C)[C@@H](C6=CC(=O)OC6)CC[C@]5(O)[C@@H]4CC[C@]3(O)C2)[C@H](O)[C@H](O)[C@H]1O [ouabain, reference compound] | – | mean dose of ouabain to produce ventricular tachycardia ([3]; intravenous): 60 ± 2.8 mg/kg
CNCCOc1ccccc1C=Cc1ccccn1 [B, 2-[0-(β-Methylamino-ethoxy)-styryl]-pyridine dihydrochloride] | 8.3 | –
